Reference: ChEMBL document CHEMBL1201862, “PubChem BioAssay data set” (2004)
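Tested at 5 concentrations; 48 h exposure; 96-well plates; endpoints linearly interpolated, else capped at highest concentration. At the GI50, growth is halved.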 Active and inactive are the calls of the source. Cut-off read from the data, not from the text of the source: active = GI50 up to about 1.1 µM and inactive = higher.

Assays:
Test in all cases: NCI anticancer screen, dose series, 48 h
A549 = test system: A549
SNB-19 = test system: SNB-19
HOP-62 = test system: HOP-62
SK-MEL-28 = test system: SK-MEL-28
KM-20L2 = test system: KM-20L2
DMS-114 = test system: DMS-114
SF-268 = test system: SF-268
U-251 = test system: U-251
NCI-H522 = test system: NCI-H522
HOP-18 = test system: HOP-18
Malme-3M = test system: Malme-3M
DMS-273 = test system: DMS-273
HL-60 = test system: HL-60
ACHN = test system: ACHN
XF498 = test system: XF498
SR = test system: SR
M14 = test system: M14
SK-MEL-2 = test system: SK-MEL-2
SF-295 = test system: SF-295
RPMI-8226 = test system: RPMI-8226
HCT-15 = test system: HCT-15
KM12 = test system: KM12
HOP-92 = test system: HOP-92
NCI-H226 = test system: NCI-H226
NCI-H23 = test system: NCI-H23
786-0 = test system: 786-0
RXF 393 = test system: RXF 393
UO-31 = test system: UO-31
SW-620 = test system: SW-620
HCC 2998 = test system: HCC 2998
LXFL 529 = test system: LXFL 529
OVCAR-3 = test system: OVCAR-3
CCRF-CEM = test system: CCRF-CEM
COLO 205 = test system: COLO 205
IGROV-1 = test system: IGROV-1
HCT-116 = test system: HCT-116
OVCAR-8 = test system: OVCAR-8
UACC-257 = test system: UACC-257
OVCAR-5 = test system: OVCAR-5
HT-29 = test system: HT-29
CAKI-1 = test system: CAKI-1
LOX IMVI = test system: LOX IMVI
OVCAR-4 = test system: OVCAR-4
SNB-75 = test system: SNB-75
MOLT-4 = test system: MOLT-4
M19-MEL = test system: M19-MEL
EKVX = test system: EKVX
K562 = test system: K562
UACC-62 = test system: UACC-62
TK-10 = test system: TK-10
SK-OV-3 = test system: SK-OV-3
NCI-H460 = test system: NCI-H460
DLD-1 = test system: DLD-1
SK-MEL-5 = test system: SK-MEL-5
SNB-78 = test system: SNB-78
SF-539 = test system: SF-539
SN12C = test system: SN12C
A498 = test system: A498
RXF 631 = test system: RXF 631

## COC(=O)c1onc(-c2c(OC)cc(OC)cc2OC)c1C(=O)OC
A549
  GI50: > 100 µM (inactive)
SNB-19
  GI50: > 100 µM (inactive)
HOP-62
  GI50: > 100 µM (inactive)
SK-MEL-28
  GI50: > 100 µM (inactive)
KM-20L2
  GI50: > 100 µM (inactive)
DMS-114
  GI50: > 100 µM (inactive)
SF-268
  GI50: > 100 µM (inactive)
U-251
  GI50: > 100 µM (inactive)
NCI-H522
  GI50: > 100 µM (inactive)
HOP-18
  GI50: > 100 µM (inactive)
Malme-3M
  GI50: > 100 µM (inactive)
DMS-273
  GI50: > 100 µM (inactive)
HL-60
  GI50: > 100 µM (inactive)
ACHN
  GI50: > 100 µM (inactive)
XF498
  GI50: > 100 µM (inactive)
SR
  GI50: > 100 µM (inactive)
M14
  GI50: > 100 µM (inactive)
SK-MEL-2
  GI50: > 100 µM (inactive)
SF-295
  GI50: > 100 µM (inactive)
RPMI-8226
  GI50: > 100 µM (inactive)
HCT-15
  GI50: > 100 µM
KM12
  GI50: > 100 µM (inactive)
HOP-92
  GI50: > 100 µM (inactive)
NCI-H226
  GI50: > 100 µM (inactive)
NCI-H23
  GI50: > 100 µM (inactive)
786-0
  GI50: > 100 µM (inactive)
RXF 393
  GI50: > 100 µM (inactive)
UO-31
  GI50: > 100 µM (inactive)
SW-620
  GI50: > 100 µM (inactive)
HCC 2998
  GI50: > 100 µM (inactive)
LXFL 529
  GI50: > 100 µM (inactive)
OVCAR-3
  GI50: > 100 µM (inactive)
CCRF-CEM
  GI50: > 100 µM (inactive)
COLO 205
  GI50: > 100 µM (inactive)
IGROV-1
  GI50: > 100 µM (inactive)
HCT-116
  GI50: > 100 µM (inactive)
OVCAR-8
  GI50: > 100 µM (inactive)
UACC-257
  GI50: > 100 µM (inactive)
OVCAR-5
  GI50: > 100 µM (inactive)
HT-29
  GI50: > 100 µM (inactive)
CAKI-1
  GI50: > 100 µM (inactive)
LOX IMVI
  GI50: > 100 µM (inactive)
OVCAR-4
  GI50: > 100 µM (inactive)
SNB-75
  GI50: > 100 µM (inactive)
MOLT-4
  GI50: > 100 µM (inactive)
M19-MEL
  GI50: > 100 µM (inactive)
EKVX
  GI50: > 100 µM (inactive)
K562
  GI50: > 100 µM (inactive)
UACC-62
  GI50: > 100 µM (inactive)
TK-10
  GI50: > 100 µM (inactive)
SK-OV-3
  GI50: > 100 µM (inactive)
NCI-H460
  GI50: > 100 µM (inactive)
DLD-1
  GI50: > 100 µM (inactive)
SK-MEL-5
  GI50: > 100 µM (inactive)
SNB-78
  GI50: > 100 µM (inactive)

## CCc1ccc(/N=C\c2cc(OC)c(OC)c(OC)c2)cc1
SF-539
  GI50: > 100 µM (inactive)
A549
  GI50: > 100 µM (inactive)
SNB-19
  GI50: > 100 µM (inactive)
HOP-62
  GI50: > 100 µM (inactive)
SK-MEL-28
  GI50: > 100 µM (inactive)
KM-20L2
  GI50: > 100 µM (inactive)
DMS-114
  GI50: 40.4 µM (inactive)
SF-268
  GI50: > 100 µM (inactive)
U-251
  GI50: > 100 µM (inactive)
NCI-H522
  GI50: > 100 µM (inactive)
HOP-18
  GI50: > 100 µM (inactive)
Malme-3M
  GI50: > 100 µM (inactive)
DMS-273
  GI50: > 100 µM (inactive)
ACHN
  GI50: > 100 µM (inactive)
XF498
  GI50: > 100 µM (inactive)
M14
  GI50: > 100 µM (inactive)
SK-MEL-2
  GI50: > 100 µM (inactive)
SF-295
  GI50: > 100 µM (inactive)
RPMI-8226
  GI50: 16.6 µM (inactive)
HCT-15
  GI50: > 100 µM
KM12
  GI50: > 100 µM (inactive)
HOP-92
  GI50: > 100 µM (inactive)
NCI-H23
  GI50: > 100 µM (inactive)
786-0
  GI50: > 100 µM (inactive)
RXF 393
  GI50: > 100 µM (inactive)
SN12C
  GI50: > 100 µM (inactive)
UO-31
  GI50: > 100 µM (inactive)
SW-620
  GI50: 10.9 µM (inactive)
LXFL 529
  GI50: 51.9 µM (inactive)
OVCAR-3
  GI50: > 100 µM (inactive)
CCRF-CEM
  GI50: 40.7 µM (inactive)
IGROV-1
  GI50: > 100 µM (inactive)
HCT-116
  GI50: > 100 µM (inactive)
OVCAR-8
  GI50: > 100 µM (inactive)
UACC-257
  GI50: > 100 µM (inactive)
OVCAR-5
  GI50: > 100 µM (inactive)
HT-29
  GI50: > 100 µM (inactive)
CAKI-1
  GI50: > 100 µM (inactive)
LOX IMVI
  GI50: 20.9 µM (inactive)
OVCAR-4
  GI50: > 100 µM (inactive)
SNB-75
  GI50: > 100 µM (inactive)
A498
  GI50: > 100 µM (inactive)
MOLT-4
  GI50: > 100 µM (inactive)
M19-MEL
  GI50: > 100 µM (inactive)
EKVX
  GI50: > 100 µM (inactive)
K562
  GI50: 26.5 µM (inactive)
UACC-62
  GI50: > 100 µM (inactive)
TK-10
  GI50: > 100 µM (inactive)
SK-OV-3
  GI50: > 100 µM (inactive)
NCI-H460
  GI50: 37.7 µM (inactive)
DLD-1
  GI50: 77.8 µM (inactive)
SK-MEL-5
  GI50: > 100 µM (inactive)
SNB-78
  GI50: > 100 µM (inactive)

## O=C(O)CCC1CCc2cccc3occ1c23 (centres undefined)
SF-539
  GI50: > 100 µM (inactive)
A549
  GI50: > 100 µM (inactive)
SNB-19
  GI50: > 100 µM (inactive)
HOP-62
  GI50: > 100 µM (inactive)
SK-MEL-28
  GI50: > 100 µM (inactive)
KM-20L2
  GI50: > 100 µM (inactive)
DMS-114
  GI50: > 100 µM (inactive)
SF-268
  GI50: > 100 µM (inactive)
U-251
  GI50: > 100 µM (inactive)
NCI-H522
  GI50: > 100 µM (inactive)
Malme-3M
  GI50: > 100 µM (inactive)
DMS-273
  GI50: > 100 µM (inactive)
HL-60
  GI50: > 100 µM (inactive)
ACHN
  GI50: > 100 µM (inactive)
M14
  GI50: > 100 µM (inactive)
SK-MEL-2
  GI50: > 100 µM (inactive)
SF-295
  GI50: > 100 µM (inactive)
RPMI-8226
  GI50: > 100 µM (inactive)
HCT-15
  GI50: > 100 µM
KM12
  GI50: > 100 µM (inactive)
HOP-92
  GI50: > 100 µM (inactive)
NCI-H226
  GI50: > 100 µM (inactive)
NCI-H23
  GI50: > 100 µM (inactive)
786-0
  GI50: > 100 µM (inactive)
RXF 393
  GI50: > 100 µM (inactive)
SN12C
  GI50: > 100 µM (inactive)
UO-31
  GI50: > 100 µM (inactive)
SW-620
  GI50: > 100 µM (inactive)
RXF 631
  GI50: > 100 µM (inactive)
HCC 2998
  GI50: > 100 µM (inactive)
LXFL 529
  GI50: > 100 µM (inactive)
OVCAR-3
  GI50: > 100 µM (inactive)
CCRF-CEM
  GI50: > 100 µM (inactive)
COLO 205
  GI50: > 100 µM (inactive)
IGROV-1
  GI50: > 100 µM (inactive)
HCT-116
  GI50: > 100 µM (inactive)
OVCAR-8
  GI50: > 100 µM (inactive)
UACC-257
  GI50: > 100 µM (inactive)
OVCAR-5
  GI50: > 100 µM (inactive)
HT-29
  GI50: > 100 µM (inactive)
CAKI-1
  GI50: > 100 µM (inactive)
LOX IMVI
  GI50: > 100 µM (inactive)
OVCAR-4
  GI50: > 100 µM (inactive)
SNB-75
  GI50: > 100 µM (inactive)
A498
  GI50: > 100 µM (inactive)
MOLT-4
  GI50: > 100 µM (inactive)
M19-MEL
  GI50: > 100 µM (inactive)
EKVX
  GI50: > 100 µM (inactive)
K562
  GI50: > 100 µM (inactive)
UACC-62
  GI50: > 100 µM (inactive)
TK-10
  GI50: > 100 µM (inactive)
SK-OV-3
  GI50: > 100 µM (inactive)
NCI-H460
  GI50: > 100 µM (inactive)
DLD-1
  GI50: > 100 µM (inactive)
SK-MEL-5
  GI50: > 100 µM (inactive)
SNB-78
  GI50: > 100 µM (inactive)
